Assay results as given in patent US5539119A, “Indole derivatives” (priority 1990, dated 1996).
Where two headings read alike, the source gives them in different places.

Legend:
δ opioid receptor [1] = molecular target: T1, δ opioid receptor (Cavia porcellus, UniProt A0A286XTF2); experiment: Bonding (binding) assay, guinea pig brain homogenate, DPDPE (hot) / DADLE (cold)
T1 construct: the homogenate of the brain of a guinea pig; from tissue; host or cells: guinea pig brain homogenate
Protocol: (§1) In the test for bonding, the homogenate of the brain of a guinea pig was diluted with Tris buffer in a ratio calculated to give to the produced solution a protein content of 0.7 mg per prot/tube was used as incorporated in the reaction solution. With regard to ligands for binding assay, 3H-DAGO (μ), DPDPE (δ), and EKC (κ) were used for hot samples and naloxone (μ), DADLE (δ), and naloxone (κ) for cold samples.

δ opioid receptor [2] = experiment: as above; conditions: μ/δ
Protocol: as §1

μ opioid receptor = molecular target: T2, μ opioid receptor (Cavia porcellus, UniProt A0ACM8Q262); experiment: Bonding (binding) assay, guinea pig brain homogenate, 3H-DAGO (hot) / naloxone (cold); conditions: for Ki: guinea pig brain homogenate; for Ki ratio κ/μ: selectivity ratio
T2 construct: 3H-DAGO (DAMGO) radioligand, cold naloxone
Protocol: as §1

[3] = system: Guinea Pig Ileal Longitudinal Muscle; experiment: Agonist activity in Guinea Pig Ileal Longitudinal Muscle (GPI); conditions: for IC50: guinea pig ileum
Protocol: (§2) The test of the compounds of this invention for agonist and antagonist activities was carried out in according to the method proposed by Takemori et al. (Takemori, A, E. et al.: Eur. J. Pharmacal., 1982, 85, 163) using Guinea Pig Ileal Longitudinal Muscle Mouse Vas Deferens (MVD).

κ opioid receptor = molecular target: T3, κ opioid receptor (Cavia porcellus, UniProt P41144); experiment: Bonding (binding) assay, guinea pig brain homogenate, EKC (hot) / naloxone (cold)
T3 construct: the homogenate of the brain of a guinea pig; from tissue; host or cells: guinea pig brain homogenate
Protocol: as §1

Mouse Vas Deferens (MVD) = experiment: Agonist activity in Mouse Vas Deferens (MVD); conditions: read-out: MVD IC50
Protocol: as §2

δ-receptor = molecular target: T4, δ-receptor (Mus musculus, UniProt P32300); experiment: Antagonism to DPDPE in Mouse Vas Deferens (MVD)
T4 construct: from tissue; host or cells: mouse vas deferens

[4] = system: Guinea Pig Ileal Longitudinal Muscle; experiment: GPI, shift of the compound's effect by naloxone or nor-BNI; design: GPI nor-BN1 Ke: unit not given here
Protocol: as §2

mouse T cells = experiment: Inhibiting proliferation of mouse T cells by Con-A stimulation ([3H]thymidine uptake, spleen cells); format: cell-based; conditions: for IC50: ConA-stimulated mouse T cells
Protocol: Now, the immunosuppressive activity of the compound 19 which is representative of the compounds of the present invention will be shown. Activity in inhibiting proliferation of mouse T cells by Con-A stimulation
A monocellular suspension was prepared by sterilely removing the spleen from a mouse and passing the spleen through a mesh. This suspension was adjusted to a concentration of 5×10^6 cells/ml and dispensed by the unit of 100 μl in all the individual wells of a 96-well plate. […] Eight hours before completion of the incubation, [^3 H]thymidine was added to the contents of the wells in a fixed ratio of 2 μCi/10 μl/well. Eight hours after this addition, the cells in the wells were collected on filter papers with the aid of a cell harvester. The cells on the filter papers were dried, then combined with a toluene type scintillator, and counted for the radioactivity of the [^3 H] thymidine occluded in the cells by means of a scintillation counter.
The ratio of suppression of T cell proliferation was calculated in accordance with the following formula:
Rate of suppression=(Radioactivity in the absence of compound-Radioactivityafter addition of compound)/(Radioactivity in the absence of compound-Radioactivity in the absence of ConA)

[5] = guinea pig brain homogenate, read-out: Bonding assay Ki value δ

T3 sequence (P41144 whole entry): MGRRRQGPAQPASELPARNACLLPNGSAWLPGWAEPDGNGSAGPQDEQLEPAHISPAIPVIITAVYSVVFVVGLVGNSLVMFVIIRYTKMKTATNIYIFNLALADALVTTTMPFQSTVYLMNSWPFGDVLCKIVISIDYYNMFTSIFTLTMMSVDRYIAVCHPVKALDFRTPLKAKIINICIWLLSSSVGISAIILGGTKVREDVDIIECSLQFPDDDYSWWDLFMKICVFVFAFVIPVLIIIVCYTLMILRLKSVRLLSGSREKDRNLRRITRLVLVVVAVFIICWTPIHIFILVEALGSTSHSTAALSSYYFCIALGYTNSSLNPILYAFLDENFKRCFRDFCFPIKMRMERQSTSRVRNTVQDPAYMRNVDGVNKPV
T4 sequence (P32300 whole entry): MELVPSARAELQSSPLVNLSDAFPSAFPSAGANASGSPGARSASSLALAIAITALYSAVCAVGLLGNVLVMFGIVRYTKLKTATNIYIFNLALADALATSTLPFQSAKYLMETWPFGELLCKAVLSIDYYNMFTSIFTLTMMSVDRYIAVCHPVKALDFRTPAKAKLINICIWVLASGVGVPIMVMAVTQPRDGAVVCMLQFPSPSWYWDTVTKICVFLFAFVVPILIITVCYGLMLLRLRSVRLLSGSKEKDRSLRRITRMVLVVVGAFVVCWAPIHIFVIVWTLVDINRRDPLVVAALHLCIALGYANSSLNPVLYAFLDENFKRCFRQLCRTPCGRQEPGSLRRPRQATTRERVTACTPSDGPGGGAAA
T2 sequence (A0ACM8Q262 1-400): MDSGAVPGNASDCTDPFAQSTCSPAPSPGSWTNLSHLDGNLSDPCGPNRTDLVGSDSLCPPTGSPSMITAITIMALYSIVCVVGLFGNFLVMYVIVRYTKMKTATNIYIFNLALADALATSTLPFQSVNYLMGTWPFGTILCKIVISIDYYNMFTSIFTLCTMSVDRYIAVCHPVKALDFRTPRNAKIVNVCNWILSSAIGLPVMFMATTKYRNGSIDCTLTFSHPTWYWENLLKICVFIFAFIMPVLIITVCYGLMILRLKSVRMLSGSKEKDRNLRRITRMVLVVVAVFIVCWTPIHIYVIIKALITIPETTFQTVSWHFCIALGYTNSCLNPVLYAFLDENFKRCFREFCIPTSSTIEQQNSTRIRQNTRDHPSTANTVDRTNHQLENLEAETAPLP
T1 sequence (A0A286XTF2 1-366): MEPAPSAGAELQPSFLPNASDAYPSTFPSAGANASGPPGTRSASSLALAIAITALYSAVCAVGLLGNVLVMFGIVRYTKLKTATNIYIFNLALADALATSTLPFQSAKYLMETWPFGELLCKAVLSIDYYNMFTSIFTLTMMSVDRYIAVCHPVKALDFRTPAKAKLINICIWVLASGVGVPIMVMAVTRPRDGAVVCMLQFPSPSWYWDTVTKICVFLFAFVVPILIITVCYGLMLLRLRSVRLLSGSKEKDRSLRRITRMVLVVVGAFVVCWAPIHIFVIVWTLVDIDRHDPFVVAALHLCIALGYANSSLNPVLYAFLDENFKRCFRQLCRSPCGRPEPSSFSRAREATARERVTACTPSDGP

With `Cc1ccc2[nH]c3c(c2c1)C[C@H]1CN(C)CC[C@]1(c1cccc(O)c1)C3` (relative stereo) [Compound 4, 2-Methyl-4aα-(3-hydroxyphenyl)-9-methyl-1,2,3,4,4a,5,11,11aβ-octahydro-6H-indolo[2,3-q]isoquinoline] the Ki (δ opioid receptor [1]; [5]) was 1.24 µM, the “Ki ratio μ/δ” value (δ opioid receptor [2]) was greater than 9.35 and the “Ki ratio μ/δ” value (δ opioid receptor [2]; selectivity ratio) was 5.18. The Ki (μ opioid receptor) was 6.42 µM, the “Ki ratio κ/μ” value (μ opioid receptor) was greater than 1.81 and the IC50 [3] was 28 µM. It also gave a Ki (κ opioid receptor) greater than 11.6 µM, an IC50 (Mouse Vas Deferens (MVD)) of 46.1 µM and a Kb (δ-receptor; at 100 nM) of 0.427 µM. The “MVD Antagonism to DPDPE at 100 nM, DR” value (δ-receptor; at 100 nM) was 3.37, the “GPI naloxone DR” value [4] was 0.62 and the “GPI nor-BN1 DR” value [4] was 1.17.

In the case of `CN1CC[C@]2(c3cccc(O)c3)Cc3c(c4ccccc4n3C)C[C@H]2C1` (relative stereo) [Compound 12, 2-Methyl-4aα-(3-hydroxyphenyl)-1,2,3,4,4a,5,11,11aβ-octahydro-6-methyl-indolo[2,3-g]isoquinoline], the Ki (δ opioid receptor [1]; [5]) is reported as 0.12 µM, the “Ki ratio μ/δ” value (δ opioid receptor [2]) is reported as 3.17 and the “Ki ratio μ/δ” value (δ opioid receptor [2]; selectivity ratio) is reported as 10.3. For the same compound, the Ki (μ opioid receptor) was 1.23 µM, the “Ki ratio κ/μ” value (μ opioid receptor) was 0.31 and the IC50 [3] was 38.7 µM. The Ki (κ opioid receptor) was 0.38 µM, the IC50 (Mouse Vas Deferens (MVD)) was 25 µM and the Kb (δ-receptor; at 100 nM) was 0.138 µM. The “MVD Antagonism to DPDPE at 100 nM, DR” value (δ-receptor; at 100 nM) was 8.27, the “GPI naloxone DR” value [4] was 0.61 and the “GPI nor-BN1 DR” value [4] was 0.70.

With `CN1CC[C@]2(c3cccc(O)c3)Cc3[nH]c4ccc(Cl)cc4c3C[C@H]2C1` (relative stereo) [Compound 6, 2-Methyl-4aα-(3-hydroxyphenyl)-9-chloro-1,2,3,4,4a,5,11,11aβ-octahydro-6H-indolo[2,3-q]isoquinoline] the Ki (δ opioid receptor [1]; [5]) was 1.1 µM, the “Ki ratio μ/δ” value (δ opioid receptor [2]) was greater than 24.9 and the “Ki ratio μ/δ” value (δ opioid receptor [2]; selectivity ratio) was greater than 6.45. The Ki (μ opioid receptor) was greater than 7.09 µM, the “Ki ratio κ/μ” value (μ opioid receptor) was greater than 3.86 and the IC50 [3] was 7.9 µM. For the same compound, the Ki (κ opioid receptor) was greater than 27.4 µM, the IC50 (Mouse Vas Deferens (MVD)) was 23.6 µM and the Kb (δ-receptor; at 100 nM) was 0.24 µM. The “MVD Antagonism to DPDPE at 100 nM, DR” value (δ-receptor; at 100 nM) was 5.16, the “GPI naloxone DR” value [4] was 0.86 and the “GPI nor-BN1 DR” value [4] was 1.23. The “GPI nor-BN1 Ke” value [4] was 77.0 and the “GPI nor-BN1 pA2” value [4] was 7.16.

In the case of `CN1CC[C@]2(c3cccc(O)c3)Cc3[nH]c4c(F)cccc4c3C[C@H]2C1` (relative stereo) [Compound 8, 2-Methyl-4aα-(3-hydroxyphenyl)-7-fluoro-1,2,3,4,4a,5,11,11aβ-octahydro-6H-indolo[2,3-g]isoquinoline], the Ki (δ opioid receptor [1]) is reported as 0.059 µM, the “Ki ratio μ/δ” value (δ opioid receptor [2]) is reported as greater than 114 and the “Ki ratio μ/δ” value (δ opioid receptor [2]; selectivity ratio) is reported as 77.8. The Ki (μ opioid receptor) was 4.59 µM, the “Ki ratio κ/μ” value (μ opioid receptor) was greater than 1.47 and the IC50 [3] was 23 µM. It also gave a Ki (κ opioid receptor) greater than 6.75 µM, an IC50 (Mouse Vas Deferens (MVD)) of 25.9 µM and a Kb (δ-receptor; MVD Antagonism to DPDPE at 100 nM, pA2, at 100 nM) of 0.0708 µM. The “MVD Antagonism to DPDPE at 100 nM, DR” value (δ-receptor; at 100 nM) was 15.0, the “GPI naloxone DR” value [4] was 0.80 and the “GPI nor-BN1 DR” value [4] was 1.04.

`CN1CC[C@]2(c3cccc(O)c3)Cc3[nH]c4ccccc4c3C[C@H]2C1` (relative stereo) [Compound 2, 2-Methyl-4aα-(3-hydroxyphenyl)-1,2,3,4,4a,5,11,11aβ-octahydro-6H-indolo[2,3-g]isoquinoline] was tested, and the Ki (δ opioid receptor [1]; [5]) was 0.193 µM, the “Ki ratio μ/δ” value (δ opioid receptor [2]) was greater than 30.9 and the “Ki ratio μ/δ” value (δ opioid receptor [2]; selectivity ratio) was 8.55. For the same compound, the Ki (μ opioid receptor) was 1.65 µM, the “Ki ratio κ/μ” value (μ opioid receptor) was greater than 3.62 and the IC50 [3] was 65.1 µM. It also gave a Ki (κ opioid receptor) greater than 5.97 µM, an IC50 (Mouse Vas Deferens (MVD)) of 68.6 µM and a Kb (δ-receptor; at 100 nM) of 0.138 µM. For the same compound, the “MVD Antagonism to DPDPE at 100 nM, DR” value (δ-receptor; at 100 nM) was 8.14, the “GPI naloxone DR” value [4] was 1.12 and the “GPI nor-BN1 DR” value [4] was 1.25. The “GPI nor-BN1 Ke” value [4] was 301 and the “GPI nor-BN1 pA2” value [4] was 6.65.

For `Oc1cccc([C@]23CCN(CC4CC4)C[C@@H]2Cc2c([nH]c4ccccc24)C3)c1` (relative stereo) [Compound 19, 2-Cyclopropylmethyl-4aα-(3-hydroxyphenyl)-1,2,3,4,4a,5,11,11β-octahydro-6H-indolo[2,3-g]isoquinoline], the Ki (δ opioid receptor [1]) was 0.0035 µM, the Ki (μ opioid receptor) was 0.716 µM and the “effect on contraction of guinea pig ileum, in words” value [3] was “avoids affecting the inhibition of contraction of the ileum of a guinea pig”. The IC50 [3] was 34.6 µM, the Ki (κ opioid receptor) was 0.951 µM and the IC50 (Mouse Vas Deferens (MVD)) was 28.9 µM. For the same compound, the “MVD Antagonism to DPDPE, DR” value (δ-receptor; (20 nM)) was 5.17, the “MVD Antagonism to DPDPE, DR” value (δ-receptor; (50 nM)) was 9.62 and the Kb (δ-receptor; MVD Antagonism to DPDPE, pA2, (20 nM)) was 0.00501 µM. For the same compound, the Kb (δ-receptor; MVD Antagonism to DPDPE, pA2, (50 nM)) was 0.00603 µM, the “effect on inhibition of contraction by DPDPE, in words” value (δ-receptor; Mouse Vas Deferens) was “selectively attenuate the inhibition of contraction by DPDPE” and the “GPI naloxone DR” value [4] was 0.93. For the same compound, the “GPI nor-BN1 DR” value [4] was 0.95, the “activity in immunosuppression / inhibiting T cell proliferation, in words” value (mouse T cells) was “clearly strong activity in immunosuppression” and the inhibition at 0.1 µg/mL (mouse T cells; Mus musculus, T-cell, 48 h, 0.1 μg/ml, n = 3, read-out: Ratio of suppression of T cell proliferation) was 6%. The inhibition at 0.5 µg/mL (mouse T cells; Mus musculus, T-cell, 48 h, 0.5 μg/ml, n = 3, read-out: Ratio of suppression of T cell proliferation) was 0%, the inhibition at 0.75 µg/mL (mouse T cells; Mus musculus, T-cell, 48 h, 0.75 μg/ml, n = 3, read-out: Ratio of suppression of T cell proliferation) was 18% and the inhibition at 1 µg/mL (mouse T cells; Mus musculus, T-cell, 48 h, 1.0 μg/ml, n = 3, read-out: Ratio of suppression of T cell proliferation) was 1%. It also gave an inhibition at 2.5 µg/mL (mouse T cells; Mus musculus, T-cell, 48 h, 2.5 μg/ml, n = 3, read-out: Ratio of suppression of T cell proliferation) of 33%, an inhibition at 5 µg/mL (mouse T cells; Mus musculus, T-cell, 48 h, 5.0 μg/ml, n = 3, read-out: Ratio of suppression of T cell proliferation) of 94% and an inhibition at 7.5 µg/mL (mouse T cells; Mus musculus, T-cell, 48 h, 7.5 μg/ml, n = 3, read-out: Ratio of suppression of T cell proliferation) of 100%. It also gave an inhibition at 10 µg/mL (mouse T cells; Mus musculus, T-cell, 48 h, 10.0 μg/ml, n = 3, read-out: Ratio of suppression of T cell proliferation) of 100%, an inhibition at 12.5 µg/mL (mouse T cells; Mus musculus, T-cell, 48 h, 12.5 μg/ml, n = 3, read-out: Ratio of suppression of T cell proliferation) of 100% and an inhibition at 15 µg/mL (mouse T cells; Mus musculus, T-cell, 48 h, 15.0 μg/ml, n = 3, read-out: Ratio of suppression of T cell proliferation) of 100%. It also gave an inhibition at 17.5 µg/mL (mouse T cells; Mus musculus, T-cell, 48 h, 17.5 μg/ml, n = 3, read-out: Ratio of suppression of T cell proliferation) of 100%, an inhibition at 20 µg/mL (mouse T cells; Mus musculus, T-cell, 48 h, 20.0 μg/ml, n = 3, read-out: Ratio of suppression of T cell proliferation) of 100% and an IC50 (mouse T cells; Mus musculus, T-cell, read-out: IC50, activity in inhibiting T cell hyperplasia (Table 3)) of 2.7 µg/mL. The IC50 (mouse T cells; Mus musculus, T-cell, read-out: IC50 value, immunosuppression (text to Table 2)) was 3 µg/mL.
